Assay results published in ChEMBL document CHEMBL1201862, “PubChem BioAssay data set” (2004).
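Cultured in 96-well plates, cells were exposed to test compound for 48 hours across five concentrations. At the GI50, growth is halved.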 Activity calls are given as the source filed them. Cut-off read from the data, not from the text of the source: active = GI50 up to about 1.1 µM and inactive = higher.

Assays:
Assay in all cases: inhibition of tumour cell growth, NCI panel, 48 h
[1] = test system: CAKI-1
[2] = test system: CCRF-CEM
[3] = test system: EKVX
[4] = test system: HCC 2998
[5] = test system: HCT-116
[6] = test system: HOP-62
[7] = test system: HOP-92
[8] = test system: KM12
[9] = test system: LOX IMVI
[10] = test system: NCI-H23
[11] = test system: OVCAR-4
[12] = test system: OVCAR-5
[13] = test system: RPMI-8226
[14] = test system: RXF 393
[15] = test system: SF-268
[16] = test system: SK-MEL-28
[17] = test system: SK-OV-3
[18] = test system: SNB-19
[19] = test system: SNB-75
[20] = test system: TK-10

Measured: GI50

COC1(O)c2cccc(Cl)c2C(=O)N1C1(C(N)=O)CCCCC1 (configuration not stated)
inactive: [1] > 100 µM | [2] > 100 µM | [3] > 100 µM | [4] > 100 µM | [5] > 100 µM | [6] > 100 µM | [7] 24.4 µM | [8] > 100 µM | [9] > 100 µM | [10] > 37.5 µM | [11] > 100 µM | [12] > 100 µM | [13] > 100 µM | [14] > 100 µM | [15] > 100 µM | [16] > 100 µM | [17] > 100 µM | [18] > 100 µM | [19] > 100 µM

C[Si](C)(N[Si](C)(C)OCCc1ccccc1)OCCc1ccccc1
inactive: [1] > 100 µM | [2] > 100 µM | [3] > 100 µM | [4] > 100 µM | [5] > 100 µM | [6] > 100 µM | [7] > 100 µM | [8] > 100 µM | [9] > 100 µM | [10] > 100 µM | [11] > 100 µM | [12] > 100 µM | [13] > 100 µM | [14] > 100 µM | [16] > 100 µM | [17] > 100 µM | [18] > 100 µM | [19] > 100 µM | [20] > 100 µM

COc1ccc(Nc2cnc3cc(N)ccc3n2)cc1OC
inactive: [2] 37.4 µM | [3] > 100 µM | [4] 29.2 µM | [5] 86.1 µM | [6] 61.1 µM | [7] 7.62 µM | [8] 70.5 µM | [9] 37.1 µM | [10] 26.9 µM | [12] > 100 µM | [13] 23.9 µM | [14] > 100 µM | [15] 74.1 µM | [16] > 100 µM | [17] > 100 µM | [19] > 100 µM | [20] > 100 µM

C1=CCN(c2ccccc2)CC1
inactive: [2] 6.38 µM | [3] 97.1 µM | [4] 49.9 µM | [5] 29.6 µM | [7] 21.2 µM | [8] 64.9 µM | [9] 43.9 µM | [10] 31.5 µM | [12] > 100 µM | [13] 2.48 µM | [14] 12.2 µM | [15] 36.6 µM | [16] 24.8 µM | [17] > 100 µM | [18] > 100 µM | [19] 33.1 µM | [20] 40 µM
